{"source": "patent US6525001B1", "about": "“Substituted pyrimidine and pyridine herbicides” (Mid-American Commercialization Corporation, priority 1997, dated 2003)", "type_in_all_cases": "in vivo", "settings_in_all_cases": "PREEMERGENCE", "key": {"[1]": {"tested_on": "ivyleaf speedwell (Veronica hederaefolia)", "assay": "Test D", "set-up": "key: 0 is no effect; 100 is complete control"}, "[2]": {"tested_on": "barnyardgrass (Echinochloa crus-galli)", "assay": "Test E pre-/postemergence/post directed", "how_it_was_run": "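Three application modes in greenhouse pots: preemergence soil spray, postemergence foliar spray at two to four leaves, and post-directed spray to soil and plant base. Ratings of 0–100 injury, assigned visually against untreated controls 13 to 21 days later.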"}, "[3]": {"tested_on": "black nightshade (Solanum nigra)", "assay": "Test D", "set-up": "key: 0 is no effect; 100 is complete control"}, "[4]": {"tested_on": "chickweed (Stellaria media)", "assay": "Test D"}, "[5]": {"tested_on": "galium 2 (Galium aparine)", "assay": "Test D", "set-up": "key: 0 is no effect; 100 is complete control"}, "[6]": {"tested_on": "jointed goatgrass (Aegilops cylindrica)", "assay": "Test D"}, "[7]": {"tested_on": "kochia (Kochia scoparia)", "assay": "Test D", "set-up": "key: 0 is no effect; 100 is complete control"}, "[8]": {"tested_on": "lambsquarters (Chenopodium album)", "assay": "Test D"}, "[9]": {"tested_on": "Russian thistle (Salsola kali)", "assay": "Test D", "set-up": "key: 0 is no effect; 100 is complete control"}, "[10]": {"tested_on": "scentless chamomile (Matricaria inodora)", "assay": "Test D"}, "[11]": {"tested_on": "spring barley (Hordeum vulgare)", "assay": "Test D"}, "[12]": {"tested_on": "sugar beet (Beta vulgaris)", "assay": "Test D", "set-up": "key: 0 is no effect; 100 is complete control"}, "[13]": {"tested_on": "spring wheat (Triticum aestivum)", "assay": "Test D", "set-up": "key to Plant response rating, Spring Wheat: 0 is no effect"}, "[14]": {"tested_on": "wild buckwheat (Polygonum convolvulus)", "assay": "Test D"}, "[15]": {"tested_on": "windgrass (Apera spica-venti)", "assay": "Test D", "set-up": "key: 0 is no effect; 100 is complete control"}, "[16]": {"tested_on": "winter barley (Hordeum vulgare)", "assay": "Test D"}}}
{"smiles": "Cc1cnc(-c2ccc(C(F)(F)F)cc2)nc1Cc1cccc(C(F)(F)F)c1", "note": "[Example 1, 5-methyl-2-[4-(trifluoromethyl)phenyl]-4-[[3-(trifluoromethyl)phenyl]methyl]pyrimidine]", "values": [{"measurement": "Plant response rating, Ivyleaf speedwe", "setting": "[1]; Rate 31 g/ha", "value": 50}, {"measurement": "Plant response rating, Ivyleaf speedwe", "setting": "[1]; Rate 62 g/ha", "value": 100}, {"measurement": "Plant response rating, Ivyleaf speedwe", "setting": "[1]; Rate 125 g/ha", "value": 100}, {"measurement": "Plant response rating, Ivyleaf speedwe", "setting": "[1]; Rate 250 g/ha", "value": 100}, {"measurement": "Plant response rating, Barnyardgrass", "setting": "[2]; Rate 32 g/ha", "value": 5}, {"measurement": "Plant response rating, Barnyardgrass", "setting": "[2]; Rate 64 g/ha", "value": 70}, {"measurement": "Plant response rating, Barnyardgrass", "setting": "[2]; Rate 125 g/ha", "value": 80}, {"measurement": "Plant response rating, Blk nightshade", "setting": "[3]; Rate 31 g/ha", "value": 55}, {"measurement": "Plant response rating, Blk nightshade", "setting": "[3]; Rate 62 g/ha", "value": 90}, {"measurement": "Plant response rating, Blk nightshade", "setting": "[3]; Rate 125 g/ha", "value": 100}, {"measurement": "Plant response rating, Blk nightshade", "setting": "[3]; Rate 250 g/ha", "value": 100}, {"measurement": "Plant response rating, Chickweed", "setting": "[4]; Rate 31 g/ha", "value": 55}, {"measurement": "Plant response rating, Chickweed", "setting": "[4]; Rate 62 g/ha", "value": 85}, {"measurement": "Plant response rating, Chickweed", "setting": "[4]; Rate 125 g/ha", "value": 85}, {"measurement": "Plant response rating, Chickweed", "setting": "[4]; Rate 250 g/ha", "value": 90}, {"measurement": "Plant response rating, Galium", "setting": "[5]; Rate 31 g/ha", "value": 20}, {"measurement": "Plant response rating, Galium", "setting": "[5]; Rate 62 g/ha", "value": 100}, {"measurement": "Plant response rating, Galium", "setting": "[5]; Rate 125 g/ha", "value": 100}, {"measurement": "Plant response rating, Galium", "setting": "[5]; Rate 250 g/ha", "value": 100}, {"measurement": "Plant response rating, Jointed goatgra", "setting": "[6]; Rate 31 g/ha", "value": 10}, {"measurement": "Plant response rating, Jointed goatgra", "setting": "[6]; Rate 62 g/ha", "value": 20}, {"measurement": "Plant response rating, Jointed goatgra", "setting": "[6]; Rate 125 g/ha", "value": 70}, {"measurement": "Plant response rating, Jointed goatgra", "setting": "[6]; Rate 250 g/ha", "value": 50}, {"measurement": "Plant response rating, Kochia", "setting": "[7]; Rate 31 g/ha", "value": 40}, {"measurement": "Plant response rating, Kochia", "setting": "[7]; Rate 62 g/ha", "value": 100}, {"measurement": "Plant response rating, Kochia", "setting": "[7]; Rate 125 g/ha", "value": 100}, {"measurement": "Plant response rating, Kochia", "setting": "[7]; Rate 250 g/ha", "value": 85}, {"measurement": "Plant response rating, Lambsquarters", "setting": "[8]; Rate 31 g/ha", "value": 10}, {"measurement": "Plant response rating, Lambsquarters", "setting": "[8]; Rate 62 g/ha", "value": 70}, {"measurement": "Plant response rating, Lambsquarters", "setting": "[8]; Rate 125 g/ha", "value": 70}, {"measurement": "Plant response rating, Lambsquarters", "setting": "[8]; Rate 250 g/ha", "value": 70}, {"measurement": "Plant response rating, Russian thistle", "setting": "[9]; Rate 31 g/ha", "value": 10}, {"measurement": "Plant response rating, Russian thistle", "setting": "[9]; Rate 62 g/ha", "value": 100}, {"measurement": "Plant response rating, Russian thistle", "setting": "[9]; Rate 250 g/ha", "value": 100}, {"measurement": "Plant response rating, Scentless chamo", "setting": "[10]; Rate 31 g/ha", "value": 30}, {"measurement": "Plant response rating, Scentless chamo", "setting": "[10]; Rate 62 g/ha", "value": 70}, {"measurement": "Plant response rating, Scentless chamo", "setting": "[10]; Rate 125 g/ha", "value": 75}, {"measurement": "Plant response rating, Scentless chamo", "setting": "[10]; Rate 250 g/ha", "value": 85}, {"measurement": "Plant response rating, Spring Barley", "setting": "[11]; Rate 31 g/ha", "value": 10}, {"measurement": "Plant response rating, Spring Barley", "setting": "[11]; Rate 62 g/ha", "value": 20}, {"measurement": "Plant response rating, Spring Barley", "setting": "[11]; Rate 125 g/ha", "value": 20}, {"measurement": "Plant response rating, Spring Barley", "setting": "[11]; Rate 250 g/ha", "value": 40}, {"measurement": "Plant response rating, Sugar beet", "setting": "[12]; Rate 31 g/ha", "value": 30}, {"measurement": "Plant response rating, Sugar beet", "setting": "[12]; Rate 62 g/ha", "value": 100}, {"measurement": "Plant response rating, Sugar beet", "setting": "[12]; Rate 125 g/ha", "value": 85}, {"measurement": "Plant response rating, Sugar beet", "setting": "[12]; Rate 250 g/ha", "value": 100}, {"measurement": "Plant response rating, Spring Wheat", "setting": "[13]; Rate 31 g/ha", "value": 0}, {"measurement": "Plant response rating, Wheat (spring)", "setting": "[13]; Rate 31 g/ha", "value": 10}, {"measurement": "Plant response rating, Spring Wheat", "setting": "[13]; Rate 62 g/ha", "value": 0}, {"measurement": "Plant response rating, Wheat (spring)", "setting": "[13]; Rate 62 g/ha", "value": 10}, {"measurement": "Plant response rating, Spring Wheat", "setting": "[13]; Rate 125 g/ha", "value": 0}, {"measurement": "Plant response rating, Wheat (spring)", "setting": "[13]; Rate 125 g/ha", "value": 50}, {"measurement": "Plant response rating, Wheat (spring)", "setting": "[13]; Rate 250 g/ha", "value": 30}, {"measurement": "Plant response rating, Wild buckwheat", "setting": "[14]; Rate 31 g/ha", "value": 40}, {"measurement": "Plant response rating, Wild buckwheat", "setting": "[14]; Rate 62 g/ha", "value": 80}, {"measurement": "Plant response rating, Wild buckwheat", "setting": "[14]; Rate 125 g/ha", "value": 85}, {"measurement": "Plant response rating, Wild buckwheat", "setting": "[14]; Rate 250 g/ha", "value": 85}, {"measurement": "Plant response rating, Windgrass", "setting": "[15]; Rate 31 g/ha", "value": 60}, {"measurement": "Plant response rating, Windgrass", "setting": "[15]; Rate 62 g/ha", "value": 100}, {"measurement": "Plant response rating, Windgrass", "setting": "[15]; Rate 125 g/ha", "value": 100}, {"measurement": "Plant response rating, Windgrass", "setting": "[15]; Rate 250 g/ha", "value": 100}, {"measurement": "Plant response rating, Barley (winter)", "setting": "[16]; Rate 31 g/ha", "value": 10}, {"measurement": "Plant response rating, Barley (winter)", "setting": "[16]; Rate 62 g/ha", "value": 20}, {"measurement": "Plant response rating, Barley (winter)", "setting": "[16]; Rate 125 g/ha", "value": 30}, {"measurement": "Plant response rating, Barley (winter)", "setting": "[16]; Rate 250 g/ha", "value": 40}]}
